Test results published in ChEMBL document CHEMBL3885861, “Open TG-GATES”.

Species on record: Rattus norvegicus
Test: Open TG-GATES - Regimen: Daily Repeat
Format: toxicity, organism-based, Sprague-Dawley
Parameters: regimen Daily Repeat, gender Male, age 6 weeks
Settings: in vivo, po, 0 mg/kg, route gavage, dose level Control; for APTT / Bas / Eos / Fbg / Hb / Ht / Lym / MCH / MCHC / MCV / Mono / Neu / PT / Plat / RBC / Ret / WBC: tissue Blood; for KIDNEY_L / KIDNEY_R / KIDNEY_TOTAL: tissue Kidney; for LIVER: tissue Liver; for A/G / ALP / ALT / AST / BUN / CRE / Ca / Cl / DBIL / GLC / IP / K / LDH / Na / PL / RALB / TBIL / TC / TG / TP / gamma-GTP: tissue Plasma

## CCCCNC(=O)NS(=O)(=O)c1ccc(C)cc1 [TOLBUTAMIDE]
72 h, time 3 day
  TERMINAL_BW: 235.2 g
  APTT: 16.5 s
  Bas: 0.2%
  Eos: 1%
  Fbg: 315.4 mg/dL
  Hb: 14 g/dL
  Ht: 43.2%
  Lym: 74.6%
  MCH: 20.4 pg
  MCHC: 32.4%
  MCV: 63 fL
  Mono: 2.2%
  Neu: 21.6%
  PT: 13 s
  Plat: 112.3 x10_4/uL
  RBC: 686.4 x10_4/ul
  Ret: 6.8%
  WBC: 101.6 x10_2/uL
  KIDNEY_L: 1 g
  KIDNEY_R: 1 g
  KIDNEY_TOTAL: 2 g
  LIVER: 10.6 g
  A/G: 0.9
  ALP: 1867 IU/L
  ALT: 51 IU/L
  AST: 75.2 IU/L
  BUN: 15 mg/dL
  CRE: 0.2 mg/dL
  Ca: 11.3 mg/dL
  Cl: 105.2 meq/L
  DBIL: 0.014 mg/dL
  GLC: 179 mg/dL
  IP: 8.9 mg/dL
  K: 4.1 meq/L
  LDH: 64.4 IU/L
  Na: 143.6 meq/L
  PL: 149.8 mg/dL
  RALB: 2.7 g/dL
  TBIL: 0.066 mg/dL
  TC: 79 mg/dL
  TG: 79.2 mg/dL
  TP: 5.7 g/dL
  gamma-GTP: 1 IU/L
[…], time 7 day
  TERMINAL_BW: 272.6 g
  APTT: 17 s
  Bas: 0.4%
  Eos: 1%
  Fbg: 274.8 mg/dL
  Hb: 13.6 g/dL
  Ht: 41%
  Lym: 80%
  MCH: 20.8 pg
  MCHC: 33.3%
  MCV: 62.4 fL
  Mono: 2.6%
  Neu: 15.6%
  PT: 13 s
  Plat: 127.5 x10_4/uL
  RBC: 657.4 x10_4/ul
  Ret: 5.7%
  WBC: 127.9 x10_2/uL
  KIDNEY_L: 1.1 g
  KIDNEY_R: 1.1 g
  KIDNEY_TOTAL: 2.2 g
  LIVER: 12.8 g
  A/G: 0.9
  ALP: 1890.2 IU/L
  ALT: 43.2 IU/L
  AST: 69.2 IU/L
  BUN: 18.2 mg/dL
  CRE: 0.2 mg/dL
  Ca: 10.9 mg/dL
  Cl: 103.8 meq/L
  DBIL: 0.012 mg/dL
  GLC: 189.4 mg/dL
  IP: 8.1 mg/dL
  K: 4.1 meq/L
  LDH: 64.8 IU/L
  Na: 142.2 meq/L
  PL: 148.8 mg/dL
  RALB: 2.6 g/dL
  TBIL: 0.062 mg/dL
  TC: 67.2 mg/dL
  TG: 139.8 mg/dL
  TP: 5.6 g/dL
  gamma-GTP: 0.8 IU/L
[…], time 14 day
  TERMINAL_BW: 338.7 g
  APTT: 17.6 s
  Bas: 0.2%
  Eos: 1%
  Fbg: 284 mg/dL
  Hb: 14.4 g/dL
  Ht: 43.7%
  Lym: 78.4%
  MCH: 19.9 pg
  MCHC: 32.8%
  MCV: 60.7 fL
  Mono: 1.8%
  Neu: 18%
  PT: 13 s
  Plat: 124.7 x10_4/uL
  RBC: 721.4 x10_4/ul
  Ret: 4.4%
  WBC: 108 x10_2/uL
  KIDNEY_L: 1.2 g
  KIDNEY_R: 1.3 g
  KIDNEY_TOTAL: 2.5 g
  LIVER: 15.3 g
  A/G: 0.8
  ALP: 1297.4 IU/L
  ALT: 37 IU/L
  AST: 66.4 IU/L
  BUN: 16.6 mg/dL
  CRE: 0.2 mg/dL
  Ca: 11 mg/dL
  Cl: 104.2 meq/L
  DBIL: 0.012 mg/dL
  GLC: 185.6 mg/dL
  IP: 7.1 mg/dL
  K: 3.9 meq/L
  LDH: 58.8 IU/L
  Na: 142.6 meq/L
  PL: 149 mg/dL
  RALB: 2.7 g/dL
  TBIL: 0.056 mg/dL
  TC: 72.8 mg/dL
  TG: 131.2 mg/dL
  TP: 5.8 g/dL
  gamma-GTP: 1 IU/L
[…], time 28 day
  TERMINAL_BW: 414.9 g
  APTT: 18.4 s
  Bas: 0.2%
  Eos: 1%
  Fbg: 277 mg/dL
  Hb: 15.8 g/dL
  Ht: 47.1%
  Lym: 80.2%
  MCH: 19.4 pg
  MCHC: 33.4%
  MCV: 58 fL
  Mono: 2%
  Neu: 16%
  PT: 13.6 s
  Plat: 107.1 x10_4/uL
  RBC: 813.4 x10_4/ul
  Ret: 2.3%
  WBC: 117.4 x10_2/uL
  KIDNEY_L: 1.5 g
  KIDNEY_R: 1.5 g
  KIDNEY_TOTAL: 2.9 g
  LIVER: 15.9 g
  A/G: 0.8
  ALP: 1151.4 IU/L
  ALT: 40.6 IU/L
  AST: 62 IU/L
  BUN: 17 mg/dL
  CRE: 0.3 mg/dL
  Ca: 10.8 mg/dL
  Cl: 105.2 meq/L
  DBIL: 0.014 mg/dL
  GLC: 186.6 mg/dL
  IP: 6.7 mg/dL
  K: 4 meq/L
  LDH: 52 IU/L
  Na: 143.2 meq/L
  PL: 162.4 mg/dL
  RALB: 2.8 g/dL
  TBIL: 0.062 mg/dL
  TC: 78 mg/dL
  TG: 170 mg/dL
  TP: 6.3 g/dL
  gamma-GTP: 1.2 IU/L
